Test results as given in ChEMBL document CHEMBL3352713, “A new class of salicylic acid derivatives for inhibiting YopH of Yersinia pestis” (Bioorg Med Chem, 2014).

How the values were obtained:
[1] = Selectivity for Yersinia pestis YopH over PTP1B (unknown origin) at 5 nM
[2] = Selectivity for Yersinia pestis YopH over VHR (unknown origin) at 5 nM
[3] = Inhibition of Yersinia pestis YopH using […] as substrate by spectrophotometry
[4] = Selectivity for Yersinia pestis YopH over CD45 (unknown origin) at 5 nM
[5] = Selectivity for Yersinia pestis YopH over Cdc25A (unknown origin) at 5 nM
[6] = Selectivity for Yersinia pestis YopH over HePTP (unknown origin) at 5 nM
[7] = Selectivity for Yersinia pestis YopH over TCPTP (unknown origin) at 5 nM

SMILES	IC50 [3]	other results
O=C(O)C1=CC(=C(c2ccc(O)c(C(=O)O)c2)c2ccc(O)c(C(=O)O)c2)C=CC1=O [AURINTRICARBOXYLIC ACID]		Selectivity ratio [1]: 6; Selectivity ratio [2]: 6; Ki [3]: 0.005 µM; Selectivity ratio [4]: 6; Selectivity ratio [5]: 6; Selectivity ratio [6]: 6; Selectivity ratio [7]: 6
O=C(CCCCNC(=O)c1cc(-c2ccc(O)c(C(=O)O)c2)cs1)Nc1nc2ccccc2s1	39.5 µM	
O=C(CCCCNC(=O)c1cc(-c2ccc(O)c(C(=O)O)c2)on1)Nc1nc(-c2ccccc2)cs1	23 µM	
O=C(CCCCNC(=O)c1ccc(-c2ccc(O)c(C(=O)O)c2)s1)Nc1nc2ccccc2s1	> 20 µM	
O=C(CCCCNC(=O)c1cc(-c2ccc(O)c(C(=O)O)c2)cs1)Nc1nc(-c2ccccc2)cs1	44.2 µM	
O=C(CCCCNC(=O)c1ccc(-c2ccc(O)c(C(=O)O)c2)s1)NCc1ccccc1	> 200 µM	
O=C(CCCCNC(=O)c1cc(-c2ccc(O)c(C(=O)O)c2)on1)Nc1ccc(N2CCOCC2)cc1	63 µM	
O=C(CCNC(=O)c1ccc(-c2ccc(O)c(C(=O)O)c2)s1)Nc1nc(-c2ccccc2)cs1	> 50 µM	
O=C(CCCCNC(=O)c1ccc(-c2ccc(O)c(C(=O)O)c2)s1)Nc1ccc(N2CCOCC2)cc1	> 200 µM	
O=C(CCCCNC(=O)c1ccc(-c2ccc(O)c(C(=O)O)c2)s1)Nc1nc(-c2ccccc2)cs1	11.1 µM	
